Test results from patent publication US8252931B2, “Thiazolo[5,4-B]pyridine glucokinase activators” (Novartis AG, priority 2005, dated 2012).
Where two headings read alike, the source gives them in different places.

Assays:
[1] = target: T1, recombinant GST-GK (Homo sapiens, UniProt P35557); assay: activation of recombinant GST-GK in vitro (primary enzyme assay); format: biochemical; conditions: concentration of compound that produces a 50% increase in the activity of GK
T1 sequence (P35557 1-465): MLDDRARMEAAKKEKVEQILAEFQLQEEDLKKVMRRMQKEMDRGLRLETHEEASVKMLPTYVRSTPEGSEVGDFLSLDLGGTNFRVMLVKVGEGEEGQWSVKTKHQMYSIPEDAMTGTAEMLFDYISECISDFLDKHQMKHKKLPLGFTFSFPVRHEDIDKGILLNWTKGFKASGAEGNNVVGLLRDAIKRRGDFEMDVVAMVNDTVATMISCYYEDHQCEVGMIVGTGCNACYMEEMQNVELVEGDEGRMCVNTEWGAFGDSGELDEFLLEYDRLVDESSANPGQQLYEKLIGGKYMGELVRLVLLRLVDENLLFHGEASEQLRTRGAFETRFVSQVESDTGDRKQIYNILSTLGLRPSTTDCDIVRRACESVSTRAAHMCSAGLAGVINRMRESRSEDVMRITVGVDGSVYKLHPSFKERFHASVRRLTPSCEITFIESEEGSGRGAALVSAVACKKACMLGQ
Description: For example, the glucokinase activation in vitro may be determined by measuring the activation of recombinant GST-GK by a compound of the present invention in the absence or the presence of GKRP, a 68,000 Da protein inhibitor of GK. In these assays, formation of glucose-6-phosphate is coupled directly to the formation of thio-NADH. GST-GK catalyzes the reaction of glucose and Mg-ATP to produce glucose-6-phosphate and ADP. Glucose-6-phosphate dehydrogenase (G6PDH) reduces thionicotinamide (thio-NAD) to thio-NADH. The assay measures the formation of thio-NADH at […].
The basic GK assay components are as follows: 25 mM HEPES (pH 7.1), 25 mM KCl, 2.5 mM MgCl2, 1 mM ATP (Sigma A-5394), 1 mM DTT, 1 mM thio-NAD (Sigma T-7375), 80 units/mL G6PDH (Sigma G-5885), 10 mM glucose and 110 nM GST-GK. For assessing reversal of GK inhibition by GKRP, 20 μM Fructose-6-phosphate (F-6-P) and 370 nM recombinant GKRP are added to these assay components. Fructose-1-phosphate (F-1-P) at 1 μM is used as a control in the GK/GKRP assay. F-1-P reverses inhibition of GST-GK by GKRP.
The assay is done in standard, 96-well, round-bottom plates (Corning) and the total assay volume is 25 μL. Test compounds are serially diluted into 100% DMSO and 0.5 μL of diluted compound in 100% DMSO is added to the assay plate. Assay reagents (24.5 μL) are added using a Zymark robotic platform. Buffer, containing HEPES, MgCl2, KCl, thio-NAD, G6PDH, glucose and GST-GK, are added (5 μL) using the Zymark 8-channel hand pipet. For the GK/GKRP assay, GKRP and F-6-P are also included. The reaction is then initiated by adding 19.5 μL of buffer containing HEPES, MgCl2, KCl, DTT and ATP using the Zymark Reagent Addition Station/Reagent Addition Module. The plates are read kinetically over 10 min at 25° C. using a SpectraMax Plus microplate spectrophotometer (Molecular Devices, Sunnyvale, Calif.) to monitor the increase in optical density at 405 nm. The GK activity in wells containing test compounds is compared with activity in DMSO control wells. The concentration of compound that produces a 50% increase in the activity of GK is calculated and expressed as EC50.

[2] = tested on: DIO mice; assay: glucokinase activation in vivo: oral glucose tolerance test in DIO mice; conditions: oral (po) dosing; different timepoints during the oral glucose tolerance test; statistically significant
Description: The glucokinase activation in vivo may be determined as follows:
Male C57BL mice (Jackson Lab, Bar Harbor, Me.) are housed 2 per cage in a reversed light cycle room (light on from 8:00 p.m. to 8:00 a.m.) and given access to food and water ad libitum. To induce DIO, the mice are given a high fat diet (D12492 with 60% caloric intake from fat, Research Diets, New Brunswick, N.J.) from 4 weeks of age and maintained on the diet before being used. The DIO mice are used at 25 weeks of age. On the day of the study, animals are fasted at 7:30 a.m. Body weight measurement and basal blood sample collection are conducted at 10:00 a.m. Plasma glucose values are then determined. Animals are assigned into five groups (n=7/group) with the means of plasma glucose matched among the groups. At 10:30 a.m. animals are dosed with vehicle (water) or compound in vehicle with a dose volume of 5 ml/kg. The test compound is given at 3, 10, 30, or 100 mg/kg. One hour after vehicle or compound dosing, a blood sample (at 0 min) is taken followed by an oral glucose tolerance test (OGTT) at 1 g/kg (20% glucose in water) and a dose volume of 5 ml/kg. […] Plasma glucose concentrations are determined using a glucose meter (Ascensia Elite, Bayer Corp., Mishawaka, Ind.). […] Plasma insulin levels are determined by Luminex assay using Mouse Endocrine Lincoplex kit (Linco Research, Inc., St. Charles, Mo.). […]

[3] = read-out: EC50 in primary enzyme assay

Structure (SMILES)	EC50 [1, 3]	EC50 ([1]; read-out: EC50 in the in vitro assay measuring the activation of recombinant GST-GK)	reductions in glucose [2]
COc1ccc2nc(NC(=O)[C@H](CC3CCCC3)c3ccc(S(=O)(=O)N(CCC(=O)O)Cc4ccccc4)cc3)sc2n1 [Example 1, 3-(Benzyl-{4-[(R)-2-cyclopentyl-1-(5-methoxy-thiazolo[5,4-b]pyridin-2-ylcarbamoyl)-ethyl]-benzenesulfonyl}-amino)-propionic acid]	270 nM	~271 nM	38-53%
COCCN(CCC(=O)O)S(=O)(=O)c1ccc(C(CC2CCCC2)C(=O)Nc2nncs2)cc1 (stereo not drawn) [Example 2, 3-[{4-[2-Cyclopentyl-1-([1,3,4]thiadiazol-2-ylcarbamoyl)-ethyl]-benzene-sulfonyl}-(2-methoxy-ethyl)-amino]-propionic acid]	50000 nM	–	–
COc1ccc2nc(NC(=O)[C@H](CC3CCCC3)c3ccc(S(=O)(=O)N(CCC(=O)O)Cc4cc5ccccc5o4)cc3)sc2n1 [Example 3, 3-(Benzofuran-2-ylmethyl-{4-[(R)-2-cyclopentyl-1-(5-methoxy-thiazolo[5,4-b]pyridin-2-ylcarbamoyl)-ethyl]-benzenesulfonyl}-amino)-propionic acid]	220 nM	–	–
COc1ccc2nc(NC(=O)C(CC3CCCC3)c3ccc(S(=O)(=O)N(CC(=O)O)Cc4ccco4)cc3)sc2n1 (stereo not drawn) [Example 4-9, ({4-[2-Cyclopentyl-1-(5-methoxy-thiazolo[5,4-b]pyridin-2-ylcarbamoyl)-ethyl]-benzenesulfonyl}-furan-2-ylmethyl-amino)-acetic acid]	2400 nM	–	–
COc1ccc(CN(CCC(=O)O)S(=O)(=O)c2ccc([C@@H](CC3CCCC3)C(=O)Nc3nc4ccc(OC)nc4s3)cc2)cc1 [Example 4-21, 3-[{4-[(R)-2-Cyclopentyl-1-(5-methoxy-thiazolo[5,4-b]pyridin-2-ylcarbamoyl)-ethyl]-benzenesulfonyl}-(4-methoxy-benzyl)-amino]-propionic acid]	920 nM	–	–
COCCN(CCC(=O)O)S(=O)(=O)c1ccc(C(CC2CCCC2)C(=O)Nc2nc3cccnc3s2)cc1 (stereo not drawn) [Example 4-41, 3-[{4-[2-Cyclopentyl-1-(thiazolo[5,4-b]pyridin-2-ylcarbamoyl)-ethyl]-benzenesulfonyl}-(2-methoxy-ethyl)-amino]-propionic acid]	1200 nM	–	–
COCCN(CCC(=O)O)S(=O)(=O)c1ccc([C@@H](CC2CCCC2)C(=O)Nc2nc3ccc(SC)nc3s2)cc1 [Example 4-42, 3-[{4-[(R)-2-Cyclopentyl-1-(5-methylsulfanyl-thiazolo[5,4-b]pyridin-2-ylcarbamoyl)-ethyl]-benzenesulfonyl}-(2-methoxy-ethyl)-amino]-propionic acid]	230 nM	–	–
COCCOc1ccc2nc(NC(=O)[C@H](CC3CCCC3)c3ccc(S(=O)(=O)N(CCOC)CCC(=O)O)cc3)sc2n1 [Example 4-46, 3-[(4-{(R)-2-Cyclopentyl-1-[5-(2-methoxy-ethoxy)-thiazolo[5,4-b]pyridin-2-ylcarbamoyl]-ethyl}-benzenesulfonyl)-(2-methoxy-ethyl)-amino]-propionic acid]	220 nM	–	–
COCCN(CCC(=O)O)S(=O)(=O)c1ccc([C@H](CC2CCCC2)C(=O)Nc2nc3ccc(Cl)nc3s2)cc1 [Example 4-51, 3-[{4-[(S)-1-(5-Chloro-thiazolo[5,4-b]pyridin-2-ylcarbamoyl)-2-cyclopentyl-ethyl]-benzenesulfonyl}-(2-methoxy-ethyl)-amino]-propionic acid]	44000 nM	–	–
COCCNC(=O)c1ccc2nc(NC(=O)[C@@H](CC3CCCC3)c3ccc(S(=O)(=O)N(CCOC)CCC(=O)O)cc3)sc2n1 [Example 4-60, 3-[(4-{(S)-2-Cyclopentyl-1-[5-(2-methoxy-ethylcarbamoyl)-thiazolo[5,4-b]pyridin-2-ylcarbamoyl]-ethyl}-benzenesulfonyl)-(2-methoxy-ethyl)-amino]-propionic acid]	6000 nM	–	–
